Patent publication US8729061B2, “Pyrrolidine derivatives” (Hoffmann-La Roche Inc., priority 2011, dated 2014)

What was measured:
Type in all cases: biochemical
[1] = molecular target: human Cat B (Homo sapiens (Human), UniProt P07858); experiment: Cathepsin enzyme inhibition assay (fluorogenic peptide substrate), Cat B; conditions: enzyme 1 nM, substrate Z-Val-Val-Arg-AMC 20 μM, pH 6.5
Method: (§1) Enzyme activity is measured by observing the increase in fluorescence intensity caused by cleavage of a peptide substrate containing a fluorophore whose emission is quenched in the intact peptide.
(§2) Assay buffer: 100 mM potassium phosphate pH 6.5, EDTA-Na 5 mM, Triton X-100 0.001%, DTT 5 mM.
(§3) Enzymes (all at 1 nM): human and mouse Cathepsin S, Cat K, Cat B, Cat L. Substrate (20 μM): Z-Val-Val-Arg-AMC, except for Cat K which uses Z-Leu-Arg-AMC (both from Bachem).
(§4) Excitation 360 nm, Emission 465 nm.
(§5) Enzyme is added to the substance dilutions in 96-well microtitre plates and the reaction is started with substrate. […] IC50 are calculated by standard methods. Inhibition of human Cat S, mouse Cat S, human Cat K, mouse Cat K, human Cat B, mouse Cat B, human Cat L and mouse Cat L have been measured separately.

[2] = molecular target: human Cathepsin S (Homo sapiens (Human), UniProt P25774); experiment: Cathepsin enzyme inhibition assay (fluorogenic peptide substrate), Cat S; conditions: enzyme 1 nM, substrate Z-Val-Val-Arg-AMC 20 μM, pH 6.5
Method: as §1, §2, §3, §4, §5

[3] = molecular target: human Cat L (Homo sapiens (Human), UniProt P07711); experiment: Cathepsin enzyme inhibition assay (fluorogenic peptide substrate), Cat L; conditions: enzyme 1 nM, substrate Z-Val-Val-Arg-AMC 20 μM, pH 6.5
Method: as §1, §2, §3, §4, §5

[4] = molecular target: human Cat K (Homo sapiens (Human), UniProt P43235); experiment: Cathepsin enzyme inhibition assay (fluorogenic peptide substrate), Cat K; conditions: enzyme 1 nM, substrate Z-Leu-Arg-AMC 20 μM, pH 6.5
Method: as §1, §2, §3, §4, §5

Chain of human Cat K (P43235 115-329): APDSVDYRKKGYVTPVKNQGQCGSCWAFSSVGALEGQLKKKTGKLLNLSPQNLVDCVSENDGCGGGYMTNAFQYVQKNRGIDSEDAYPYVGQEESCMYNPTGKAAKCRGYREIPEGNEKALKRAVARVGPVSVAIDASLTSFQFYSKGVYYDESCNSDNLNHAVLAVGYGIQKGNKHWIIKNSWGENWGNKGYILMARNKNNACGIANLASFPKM
Chain of human Cat L (P07711 114-333): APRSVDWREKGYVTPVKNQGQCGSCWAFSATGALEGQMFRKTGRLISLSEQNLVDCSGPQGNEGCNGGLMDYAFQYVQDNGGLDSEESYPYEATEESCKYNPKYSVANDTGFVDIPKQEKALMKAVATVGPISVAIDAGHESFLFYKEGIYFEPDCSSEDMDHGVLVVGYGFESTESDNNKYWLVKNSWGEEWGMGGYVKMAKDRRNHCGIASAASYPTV
Chain of human Cathepsin S (P25774 115-331): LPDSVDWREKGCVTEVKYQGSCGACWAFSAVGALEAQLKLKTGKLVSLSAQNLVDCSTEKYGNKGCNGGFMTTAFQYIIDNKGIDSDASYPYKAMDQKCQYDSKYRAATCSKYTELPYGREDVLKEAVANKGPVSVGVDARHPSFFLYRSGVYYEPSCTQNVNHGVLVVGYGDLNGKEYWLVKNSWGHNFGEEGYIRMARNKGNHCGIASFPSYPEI

| IC50 [1] | IC50 [2] | IC50 [3] | IC50 [4] | Compound |
| --- | --- | --- | --- | --- |
| 518 nM | 2.61 nM | 6.4 nM | 141 nM | CC(C)C[C@H](NC(=O)[C@@H]1C[C@@H](S(=O)(=O)c2ccccc2Cl)CN1C(=O)C1(c2ncc(Cl)cc2F)CC1)C(=O)C(=O)NC1CC1 [Example 59, (2S,4R)-1-(1-(5-chloro-3-fluoropyridin-2-yl)cyclopropanecarbonyl)-4-(2-chlorophenylsulfonyl)-N—((S)-1-(cyclopropylamino)-5-methyl-1,2-dioxohexan-3-yl)pyrrolidine-2-carboxamide] |
|  | 0.652 nM | 10.1 nM | 30.1 nM | CC[C@H](NC(=O)[C@@H]1C[C@@H](S(=O)(=O)c2ccccc2Cl)CN1C(=O)C1(c2ccc(I)cc2)CC1)C(=O)C(=O)NC1CC1 [Example 17, (2S,4R)-4-(2-chlorophenylsulfonyl)-N—((S)-1-(cyclopropylamino)-1,2-dioxopentan-3-yl)-1-(1-(4-iodophenyl)cyclopropanecarbonyl)pyrrolidine-2-carboxamide] |
| 22600 nM |  | 2590 nM | 9430 nM | CC[C@H](NC(=O)[C@@H]1C[C@@H](S(=O)(=O)c2ccc(Cl)cc2C)CN1C(=O)OC(C)(C)C)C(=O)C(=O)NC1CC1 [Example 2, (2S,4R)-tert-butyl 4-(4-chloro-2-methylphenylsulfonyl)-2-((S)-1-(cyclopropylamino)-1,2-dioxopentan-3-ylcarbamoyl)pyrrolidine-1-carboxylate] |
| 112 nM | 0.508 nM | 13.6 nM |  | CCNC(=O)C(=O)[C@H](CC)NC(=O)[C@@H]1C[C@@H](S(=O)(=O)c2ccccc2Cl)CN1C(=O)C1(c2ccc(Cl)cc2)CC1 [Example 43, (2S,4R)-1-(1-(4-chlorophenyl)cyclopropanecarbonyl)-4-(2-chlorophenylsulfonyl)-N—((S)-1-(ethylamino)-1,2-dioxopentan-3-yl)pyrrolidine-2-carboxamide] |
| 97.3 nM | 0.328 nM | 5.2 nM |  | CC(C)[C@H](NC(=O)[C@@H]1C[C@@H](S(=O)(=O)c2ccccc2Cl)CN1C(=O)C1(c2ccc(Cl)cc2)CC1)C(=O)C(=O)NC1CC1 [Example 28, (2S,4R)-1-(1-(4-chlorophenyl)cyclopropanecarbonyl)-4-(2-chlorophenylsulfonyl)-N—((S)-1-(cyclopropylamino)-4-methyl-1,2-dioxopentan-3-yl)pyrrolidine-2-carboxamide] |
| 47.8 nM |  | 11.2 nM | 35.6 nM | CCCCNC(=O)C(=O)[C@H](CC)NC(=O)[C@@H]1C[C@@H](S(=O)(=O)c2ccccc2Cl)CN1C(=O)C1(c2ccc(Cl)cc2)CC1 [Example 31, (2S,4R)—N—((S)-1-(butylamino)-1,2-dioxopentan-3-yl)-1-(1-(4-chlorophenyl)cyclopropanecarbonyl)-4-(2-chlorophenylsulfonyl)pyrrolidine-2-carboxamide] |
| 323 nM |  | 0.9 nM | 49.1 nM | CC(C)[C@H](NC(=O)[C@@H]1C[C@@H](S(=O)(=O)c2ccccc2Cl)CN1C(=O)C1(c2ncc(Cl)cc2F)CC1)C(=O)C(=O)NC1CC1 [Example 58, (2S,4R)-1-(1-(5-chloro-3-fluoropyridin-2-yl)cyclopropanecarbonyl)-4-(2-chlorophenylsulfonyl)-N—((S)-1-(cyclopropylamino)-4-methyl-1,2-dioxopentan-3-yl)pyrrolidine-2-carboxamide] |

Second part, the compound before the results:

| Compound | IC50 [1] | IC50 [2] | IC50 [3] | IC50 [4] |
| --- | --- | --- | --- | --- |
| CC[C@H](NC(=O)[C@@H]1C[C@@H](S(=O)(=O)c2ccc(Cl)cc2Cl)CN1C(=O)C1(c2ccc(Cl)cc2)CC1)C(=O)C(=O)NC1CC1 [Example 38, (2S,4R)-1-(1-(4-chlorophenyl)cyclopropanecarbonyl)-N—((S)-1-(cyclopropylamino)-1,2-dioxopentan-3-yl)-4-(2,4-dichlorophenylsulfonyl)pyrrolidine-2-carboxamide] | 154 nM | 0.34 nM | 10.6 nM | 53.3 nM |
| CCC[C@H](NC(=O)[C@@H]1C[C@@H](S(=O)(=O)c2ccc(Cl)cc2Cl)CN1C(=O)C1(c2ccc(Cl)cc2)CC1)C(=O)C(=O)NC1CC1 [Example 42, (2S,4R)-1-(1-(4-chlorophenyl)cyclopropanecarbonyl)-N—((S)-1-(cyclopropylamino)-1,2-dioxohexan-3-yl)-4-(2,4-dichlorophenylsulfonyl)pyrrolidine-2-carboxamide] | 115 nM | 0.634 nM |  | 28.7 nM |
| CCC[C@H](NC(=O)[C@@H]1C[C@@H](S(=O)(=O)c2ccccc2C(F)(F)F)CN1C(=O)C1(c2ccc(Cl)cc2)CC1)C(=O)C(=O)NC1CC1 [Example 22, (2S,4R)-1-(1-(4-chlorophenyl)cyclopropanecarbonyl)-N—((S)-1-(cyclopropylamino)-1,2-dioxohexan-3-yl)-4-(2-(trifluoromethyl)phenylsulfonyl)pyrrolidine-2-carboxamide] | 144 nM | 0.983 nM | 26.6 nM | 405 nM |
| CC[C@H](NC(=O)[C@@H]1C[C@@H](S(=O)(=O)c2ccc(O[C@@H](C)C(F)(F)F)cc2Cl)CN1C(=O)C1(c2ccc(Cl)cc2)CC1)C(=O)C(=O)NC1CC1 [Example 45, (2S,4R)-4-(2-chloro-4-((S)-1,1,1-trifluoropropan-2-yloxy)phenylsulfonyl)-1-(1-(4-chlorophenyl)cyclopropanecarbonyl)-N—((S)-1-(cyclopropylamino)-1,2-dioxopentan-3-yl)pyrrolidine-2-carboxamide] | 335 nM | 5.43 nM | 74.9 nM | 212 nM |
| CC[C@H](NC(=O)[C@@H]1C[C@@H](S(=O)(=O)c2ccc(Br)cc2C(F)(F)F)CN1c1cc(C)nn1C1CCC1)C(=O)C(=O)NC1CC1 [Example 6, (2S,4R)-4-(4-bromo-2-(trifluoromethyl)phenylsulfonyl)-1-(1-cyclobutyl-3-methyl-1H-pyrazol-5-yl)-N—((S)-1-(cyclopropylamino)-1,2-dioxopentan-3-yl)pyrrolidine-2-carboxamide] | 1300 nM | 0.976 nM | 202 nM | 168 nM |
| CC[C@H](NC(=O)[C@@H]1C[C@@H](S(=O)(=O)c2ccccc2Cl)CN1C(=O)C1(c2ncc(Cl)cc2F)CC1)C(=O)C(=O)NC1CC1 [Example 25, (2S,4R)-1-(1-(5-chloro-3-fluoropyridin-2-yl)cyclopropanecarbonyl)-4-(2-chlorophenylsulfonyl)-N—((S)-1-(cyclopropylamino)-1,2-dioxopentan-3-yl)pyrrolidine-2-carboxamide] | 251 nM | 0.403 nM | 9.8 nM | 97.7 nM |
| O=C(NC1CC1)C(=O)[C@H](CC1CCCCC1)NC(=O)[C@@H]1C[C@@H](S(=O)(=O)c2ccccc2Cl)CN1C(=O)C1(c2ccc(Cl)cc2)CC1 [Example 30, (2S,4R)-1-(1-(4-chlorophenyl)cyclopropanecarbonyl)-4-(2-chlorophenylsulfonyl)-N—((S)-1-cyclohexyl-4-(cyclopropylamino)-3,4-dioxobutan-2-yl)pyrrolidine-2-carboxamide] | 210 nM | 1.42 nM | 23.4 nM | 137 nM |
| CCC[C@H](NC(=O)[C@@H]1C[C@@H](S(=O)(=O)c2ccccc2C(F)(F)F)CN1C(=O)C1(c2ncc(Cl)cc2F)CC1)C(=O)C(=O)NC1CC1 [Example 20, (2S,4R)-1-(1-(5-chloro-3-fluoropyridin-2-yl)cyclopropanecarbonyl)-N—((S)-1-(cyclopropylamino)-1,2-dioxohexan-3-yl)-4-(2-(trifluoromethyl)phenylsulfonyl)pyrrolidine-2-carboxamide] | 245 nM | 0.56 nM | 18.5 nM | 347 nM |
| CC[C@H](NC(=O)[C@@H]1C[C@@H](S(=O)(=O)c2ccccc2Cl)CN1C(=O)C1(c2ccc(Cl)cc2F)CC1)C(=O)C(=O)NC1CC1 [Example 13, (2S,4R)-1-(1-(4-chloro-2-fluorophenyl)cyclopropanecarbonyl)-4-(2-chlorophenylsulfonyl)-N—((S)-1-(cyclopropylamino)-1,2-dioxopentan-3-yl)pyrrolidine-2-carboxamide] | 142 nM | 0.704 nM | 11.3 nM | 67.9 nM |
| CC[C@H](NC(=O)[C@@H]1C[C@@H](S(=O)(=O)c2ccccc2Cl)CN1C(=O)C1(c2ncc(Br)cc2F)CC1)C(=O)C(=O)NC1CC1 [Example 23, (2S,4R)-1-(1-(5-bromo-3-fluoropyridin-2-yl)cyclopropanecarbonyl)-4-(2-chlorophenylsulfonyl)-N—((S)-1-(cyclopropylamino)-1,2-dioxopentan-3-yl)pyrrolidine-2-carboxamide] | 1230 nM | 2.98 nM | 42.1 nM | 299 nM |
| CC[C@H](NC(=O)[C@@H]1C[C@@H](S(=O)(=O)c2ccccc2C(F)(F)F)CN1c1ccccc1[N+](=O)[O-])C(=O)c1nc2ccccc2o1 [Example 5, (2S,4R)-1-(2-Nitro-phenyl)-4-(2-trifluoromethyl-benzenesulfonyl)-pyrrolidine-2-carboxylic acid [(S)-1-(benzooxazole-2-carbonyl)-propyl]-amide] | 106000 nM | 1.83 nM |  |  |
